The values that follow come from patent US8987486B2, “Trans-2-decenoic acid derivative and pharmaceutical agent containing the same” (Nagoya Industrial Science Research Institute, priority 2010, dated 2015).

Molecules are shown by their SMILES.

Test [1] deals with PC12 cells. As to the kind of experiment: Evaluation using PC12 cells; immunostaining method for MAPK phosphorylation. It is filed as cell-based. The settings on record: 30 minutes. The protocol: PC12 cells were stimulated using the compound of the present invention and the phosphorylation of MAPK was evaluated by means of immunostaining of the cells. The specific operation procedure is as follows.
A cover glass was placed on a 24-well plate followed by coating with poly-L-lysine. PC12 cells were seeded in a cell density of 50,000 cells/well. (The amount of the medium was 400 μL) On the first day after seeding the cells, the medium was exchanged to DMEM containing 1% fetal bovine serum (FBS) and 0.06% L-glutamine.
The compound which was previously diluted with DMSO was dissolved in 100 μl of medium. After 12 to 16 hours from the medium exchange, 100 μl out of 400 μl of the medium was removed from each well and, in place of that, 100 μl of a medium containing the compound was added.
After 30 minutes from the addition, fixation was conducted using 4% paraformaldehyde (PFA) for 10 minutes. The fixed cells were washed with a Tris-buffered saline (TBS) and a TBS containing 0.3% Triton X was added thereto followed by incubating at 37° C. for 30 minutes. This was washed with a TBS and blocked with a TBS containing 3% skim milk for 30 minutes (at room temperature).
This was washed with a TBS for one time and a primary antibody (anti-phospho-p42/44 MAPK antibody; cell signalings; #9102 being diluted with TBS to an extent of 1,000-fold) was added thereto followed by subjecting to the reaction at 4° C. for one night. The primary antibody was removed and washed with a TBS for three times. After that, the secondary antibody (Alexa 488 goat anti-rabbit antibody; Invitrogen: being diluted to an extent of 1,000-fold using a TBS containing 1% Block Ace) was added thereto and the reaction was conducted at room temperature for 3 hours. The secondary antibody was removed and, after washing with a TBS, fixation was conducted with 4% PFA for 1 hour.
This was washed with a TBS, Hoechst (diluted with a TBS to an extent of 2000-fold) was added thereto and nuclear staining was conducted. This was washed and mounted.
Taking the photographic pictures and counting the positive cells were conducted as follows. An all-in-one microscope (manufactured by Keyence) was used, exposing time for pMAPK (green) was made 1/2.8 s, the place was appropriately decided in a Hoechst-stained image and the pictures were taken. Four pictures per one glass sheet were taken.
Photoshop (Adobe) was used and the cells having above a certain luminance were judged to be positive. All cells were labeled using Hoechst 33342 manufactured by Invitrogen and the rate of pMAPK-positive cells in Hoechst-positive cells was calculated. (cf. Table 7)

In test [2] the test system is paclitaxel-induced peripheral nerve disorder rats. The test is described as follows: von Frey test in paclitaxel-induced peripheral nerve disorder rats. It is filed as in vivo. As to conditions: Rattus norvegicus, ip; single intraperitoneal dose of 300 μ/kg; higher of the thresholds after 1 hour and 5 hours; normal threshold 15; read-out: Recovery rate of 50% reaction threshold value (%). On the procedure:
The effect of the compound of the present invention was tested for a peripheral nerve disorder which is a side effect induced by the administration of paclitaxel (an anti-cancer agent) such as hyperesthesia including allodynia (severe pain induced by such tactile stimuli which usually cause no pain). The compound of the present invention was intraperitoneally administered to rats as a test drug to conduct a von Frey test.
Male SD rats of six weeks age (one group comprising six rats) were used as experimental animals and paclitaxel (2 mg/kg) was intraperitoneally administered every other day for four times in total to prepare paclitaxel-induced peripheral nerve disorder rats. During 18 and 25 days or during 20 to 27 days after initiation of paclitaxel administration, the test drug was intraperitoneally administered in a single dose of […] and the following von Frey test was conducted.
The rats of the above (1) were placed in a transparent acrylic cage with a wire-meshed floor and habituated for about three minutes and the 50% reaction threshold values to the mechanical stimulus of right hind limb were measured before administration of the test drug and after 1, 5 and 24 hours from initiation of the administration.
The measurement was conducted using von Frey filaments (manufactured by North Coast Medical Inc.) in accordance with the methods of Chaplan, et al. (Journal of Neuroscience Methods, vol. 53, no. 1, pages 55 to 63, 1994) and Dixon, et al. (Annual Review of Pharmacology and Toxicology, vol. 20, pages 441 to 462, 1980). […] The case where the rat escaped at the instance of removing the filament was also called positive. When the positive reaction was noted, stimulus was conducted similarly using a filament of one rank weaker while, when no reaction was noted, stimulus was conducted similarly using a filament of one rank stronger and the point when the reaction changed from negative to positive or from positive to negative was called the first two reactions. After that, stimulus was conducted for continuous four times by the same up-down method. A 50% reaction threshold value to the mechanical stimulus was measured using the reaction to the six stimuli in total and then (mean value)±(standard error) for each group was calculated. Incidentally, when stimulus reached by that of 15.0 g without positive reaction or, when positive reaction continued to 0.4 g, then 15.0 g or 0.25 g was adopted as each threshold value, respectively. With regard to the higher 50% reaction threshold value between the 50% threshold values after 1 hour and 5 hours from administration of a test drug, a recovery rate (%) of the 50% reaction threshold value was calculated by the following expression in which 15 was adopted as the normal threshold value. Recovery rate (%) of 50% reaction threshold value=[(50% reaction threshold value after 1 hour or 5 hours from administration of test drug)−(50% reaction threshold value before administration of test drug)]/[(Normal threshold value)−(50% reaction threshold value before administration of test drug)]

`CCCCCCC/C=C/C(=O)OCCCN(C)C` [Compound 2, (E)-3-(dimethylamino)propyl dec-2-enoate]: the “Rate of pMAPK-positive cells (%)” value in test [1] (62.5 μg/mL) was found to be 0%; in test [1] (125 μg/mL) it was 19%; in test [1] (250 μg/mL), 71%; in test [1] (500 μg/mL), 53%. In addition, the inhibition in vivo at 0.3 mg/kg in test [2] stood at 58.1%.

With `CCCCCCC/C=C/C(=O)N(CCCN(C)C)CCCN(C)C` [Compound 47, (E)-N,N-bis(3-(dimethylamino)propyl) dec-2-enamide], the “Rate of pMAPK-positive cells (%)” value is 17% in test [1] (62.5 μg/mL), 33% in test [1] (125 μg/mL) and 23% in test [1] (250 μg/mL). Besides, the inhibition in vivo at 0.3 mg/kg in test [2] was 37.4%.

With `CCCCCCC/C=C/C(=O)N(CC)CCN(CC)CC` [Compound 44, (E)-N-(2-(diethylamino)ethyl)-N-ethyl dec-2-enamide], the “Rate of pMAPK-positive cells (%)” value in test [1] (62.5 μg/mL) is recorded as 17%; in test [1] (125 μg/mL), 7%; in test [1] (250 μg/mL) it was 18%. In addition, the inhibition in vivo at 0.3 mg/kg in test [2] was determined as 62.6%.

Take `CCCCCCC/C=C/C(=O)N(C)CCN(C)C` [Compound 42, (E)-N-(2-(dimethylamino)ethyl)-N-methyl dec-2-enamide]: the “Rate of pMAPK-positive cells (%)” value is on record as 6% in test [1] (62.5 μg/mL), 7% in test [1] (125 μg/mL) and 27% in test [1] (250 μg/mL). Further, the inhibition in vivo at 0.3 mg/kg in test [2] was 48.7%.

Regarding `CCCCCCC/C=C/C(=O)NCCN(C(C)C)C(C)C` [Compound 40, (E)-N-2-(diisopropylamino)ethyl dec-2-enamide], in test [2], the inhibition in vivo at 0.3 mg/kg was found to be 71.5%.

With `CCCCCCC/C=C/C(=O)N(CCCCC)CCCCC` [Compound 33, (E)-N,N-dipentyl dec-2-enamide], the inhibition in vivo at 0.3 mg/kg in test [2] was 45.3%.

With `CCCCCCC/C=C/C(=O)SC1CCCC1` [Compound 53, (E)-S-cyclopentyl dec-2-enethioate], in test [2], the inhibition in vivo at 0.3 mg/kg came out at 34.9%.

As for `CCCCCCC/C=C/C(=O)SCCCCCCC` [Compound 51, (E)-S-heptyl dec-2-enethioate], the inhibition in vivo at 0.3 mg/kg in test [2] is 45.7%.

As for `CCCCCCC/C=C/C(=O)NCCCCCCC` [Compound 23, (E)-N-heptyl dec-2-enamide], in test [2], the inhibition in vivo at 0.3 mg/kg is 28.6%.

Turning to `CCCCCCC/C=C/C(=O)N(CCN(C)C)CCN(C)C` [Compound 45, (E)-N,N-bis(2-(dimethylamino)ethyl) dec-2-enamide], the “Rate of pMAPK-positive cells (%)” value worked out at 34% in test [1] (62.5 μg/mL), 67% in test [1] (125 μg/mL) and 50% in test [1] (250 μg/mL). Besides, the inhibition in vivo at 0.3 mg/kg in test [2] came out at 37%.

For `CCCCCCC/C=C/C(=O)SCCCCC` [Compound 48, (E)-S-pentyl dec-2-enethioate], the inhibition in vivo at 0.3 mg/kg in test [2] was determined as 50.7%.

Consider `CCCCCCC/C=C/C(=O)N(CC)CCCCCCC` [Compound 35, (E)-N-ethyl-N-heptyl dec-2-enamide], for which the inhibition in vivo at 0.3 mg/kg in test [2] was 47.1%.

Turning to `CCCCCCC/C=C/C(=O)N(CCN(CC)CC)CCN(CC)CC` [Compound 46, (E)-N,N-bis(2-(diethylamino)ethyl) dec-2-enamide], the “Rate of pMAPK-positive cells (%)” value turned out to be 22% in test [1] (62.5 μg/mL), 13% in test [1] (125 μg/mL) and 32% in test [1] (250 μg/mL). Also, in test [2], the inhibition in vivo at 0.3 mg/kg turned out to be 19.9%.

Regarding `CCCCCCC/C=C/C(=O)NCCCN(C)C` [Compound 38, (E)-N-3-(dimethylamino)propyl dec-2-enamide], the inhibition in vivo at 0.3 mg/kg in test [2] came out at 52.1%.

Take `CCCCCCC/C=C/C(=O)N(CC)CCN(C)C` [Compound 43, (E)-N-(2-(dimethylamino)ethyl)-N-ethyl dec-2-enamide]: the entries for the “Rate of pMAPK-positive cells (%)” value in test [1] (62.5 μg/mL), in test [1] (125 μg/mL) and in test [1] (250 μg/mL) were 20%, 26% and 49%, respectively. Moreover, the inhibition in vivo at 0.3 mg/kg in test [2] amounted to 40.3%.

On to `CCCCCCC/C=C/C(=O)NC(C)(C)CC` [Compound 21, (E)-N-tert-pentyl dec-2-enamide], for which the inhibition in vivo at 0.3 mg/kg in test [2] worked out at 63.2%.

Regarding `CCCCCCC/C=C/C(=O)OCCOC` [Compound 9, (E)-2-methoxyethyl dec-2-enoate], the inhibition in vivo at 0.3 mg/kg in test [2] was determined as 51.4%.

As to `CCCCCCC/C=C/C(=O)N(CCCC)CCCC` [Compound 32, (E)-N,N-dibutyl dec-2-enamide], in test [2], the inhibition in vivo at 0.3 mg/kg turned out to be 70.6%.

In the case of `CCCCCCC/C=C/C(=O)SCCCCCC` [Compound 50, (E)-S-hexyl dec-2-enethioate], in test [2], the inhibition in vivo at 0.3 mg/kg is 51.7%.

As to `CCCCCCC/C=C/C(=O)OCCSC(C)C` [Compound 8, (E)-2-(isopropylthio)ethyl dec-2-enoate], the inhibition in vivo at 0.3 mg/kg in test [2] was 32.2%.

On to `CCCCCCC/C=C/C(=O)NCCCCCC` [Compound 22, (E)-N-hexyl dec-2-enamide], for which, in test [2], the inhibition in vivo at 0.3 mg/kg worked out at 64.6%.

Turning to `CCCCCCC/C=C/C(=O)N(CC)CC` [Compound 31, (E)-N,N-diethyl dec-2-enamide], the “Rate of pMAPK-positive cells (%)” value worked out at 79% in test [1] (62.5 μg/mL), 95% in test [1] (125 μg/mL), 98% in test [1] (250 μg/mL) and 96% in test [1] (500 μg/mL). In test [2], the inhibition in vivo at 0.3 mg/kg came out at 43.1%.

On to `CCCCCCC/C=C/C(=O)SCCCCCCCCCC` [Compound 52, (E)-S-decyl dec-2-enethioate], for which the inhibition in vivo at 0.3 mg/kg in test [2] worked out at 18.7%.
